Each structure is given as a SMILES string.

Data on 28 molecules can be found in patent US9371320B2, “Heterocyclic compound” (TAKEDA PHARMACEUTICAL COMPANY LIMITED, priority 2012, dated 2016).

Assay [1] deals with T1, Tyk2 (Homo sapiens, UniProt P29597).
T1 construct: purchased Invitrogen
Description: Tyk2 enzyme inhibition test (LANCE method). Format: biochemical. Particulars: for inhibition at 1 µM / Inhibitory rate (%) Tyk2 1 μM: test compound 1 μM; for inhibition at 1 µM: read-out: Inhibitory rate (%) Tyk2 1 μM. In short, it runs like this:
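LANCE TR-FRET read-out (ex 340/em 665 nm, 100 μs delay) of ULight-JAK1 phosphorylation, with no-enzyme wells as 100% inhibition. Reaction run 1 h at room temperature in pH 7.5 HEPES buffer; enzyme 375 ng/mL, substrate 300 nM and ATP 30 μM are solution concentrations before mixing.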

The target in assay [2] is T2, JAK1 (Homo sapiens, UniProt P23458).
T2 construct: purchased Invitrogen
Description: JAK1 enzyme inhibition test (LANCE method). Format: biochemical. The conditions noted are these: for inhibition at 1 µM / Inhibitory rate (%) JAK1 1 μM: test compound 1 μM; for inhibition at 1 µM: read-out: Inhibitory rate (%) JAK1 1 μM. Put shortly: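 Reactions ran 1 h at room temperature in HEPES pH 7.5/MgCl2 buffer, with ATP solution at 150 μM and JAK1 and ULight peptide solutions at 187.5 ng/mL and 300 nM. Reactions were stopped with EDTA, and phosphorylation was read by Eu antibody time-resolved fluorescence at 665 nm. Inhibition was scaled to a no-enzyme control as 100%.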

T1 sequence (P29597 whole entry): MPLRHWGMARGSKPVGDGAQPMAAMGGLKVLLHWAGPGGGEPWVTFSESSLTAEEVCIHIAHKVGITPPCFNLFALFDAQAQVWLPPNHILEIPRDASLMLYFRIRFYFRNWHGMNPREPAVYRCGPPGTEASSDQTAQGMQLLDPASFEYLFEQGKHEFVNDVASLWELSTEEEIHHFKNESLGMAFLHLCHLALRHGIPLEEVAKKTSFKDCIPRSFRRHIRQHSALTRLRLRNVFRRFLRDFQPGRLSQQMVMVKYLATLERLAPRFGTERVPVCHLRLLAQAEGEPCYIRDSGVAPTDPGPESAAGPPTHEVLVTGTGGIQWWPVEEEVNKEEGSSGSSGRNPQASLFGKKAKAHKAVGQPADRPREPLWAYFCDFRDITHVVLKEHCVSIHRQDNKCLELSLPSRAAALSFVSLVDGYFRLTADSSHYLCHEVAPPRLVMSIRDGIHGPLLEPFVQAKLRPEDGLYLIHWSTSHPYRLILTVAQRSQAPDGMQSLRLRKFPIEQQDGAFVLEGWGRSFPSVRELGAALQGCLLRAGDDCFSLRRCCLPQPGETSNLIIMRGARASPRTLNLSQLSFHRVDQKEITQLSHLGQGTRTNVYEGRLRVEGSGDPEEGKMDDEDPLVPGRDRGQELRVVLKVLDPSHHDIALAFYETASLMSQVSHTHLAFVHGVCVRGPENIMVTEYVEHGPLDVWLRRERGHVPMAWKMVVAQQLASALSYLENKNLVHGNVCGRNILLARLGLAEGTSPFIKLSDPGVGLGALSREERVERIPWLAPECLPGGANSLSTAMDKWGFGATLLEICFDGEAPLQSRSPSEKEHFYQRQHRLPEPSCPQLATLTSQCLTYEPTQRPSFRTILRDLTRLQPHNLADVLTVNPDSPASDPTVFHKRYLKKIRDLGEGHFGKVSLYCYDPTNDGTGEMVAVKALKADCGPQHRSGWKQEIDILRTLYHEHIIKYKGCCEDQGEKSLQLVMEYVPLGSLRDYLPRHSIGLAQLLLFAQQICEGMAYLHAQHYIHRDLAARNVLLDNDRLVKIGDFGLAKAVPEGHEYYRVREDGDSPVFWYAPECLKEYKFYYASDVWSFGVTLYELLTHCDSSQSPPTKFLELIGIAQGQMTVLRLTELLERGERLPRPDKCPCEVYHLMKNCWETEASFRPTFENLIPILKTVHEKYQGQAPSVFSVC
T2 sequence (P23458 whole entry): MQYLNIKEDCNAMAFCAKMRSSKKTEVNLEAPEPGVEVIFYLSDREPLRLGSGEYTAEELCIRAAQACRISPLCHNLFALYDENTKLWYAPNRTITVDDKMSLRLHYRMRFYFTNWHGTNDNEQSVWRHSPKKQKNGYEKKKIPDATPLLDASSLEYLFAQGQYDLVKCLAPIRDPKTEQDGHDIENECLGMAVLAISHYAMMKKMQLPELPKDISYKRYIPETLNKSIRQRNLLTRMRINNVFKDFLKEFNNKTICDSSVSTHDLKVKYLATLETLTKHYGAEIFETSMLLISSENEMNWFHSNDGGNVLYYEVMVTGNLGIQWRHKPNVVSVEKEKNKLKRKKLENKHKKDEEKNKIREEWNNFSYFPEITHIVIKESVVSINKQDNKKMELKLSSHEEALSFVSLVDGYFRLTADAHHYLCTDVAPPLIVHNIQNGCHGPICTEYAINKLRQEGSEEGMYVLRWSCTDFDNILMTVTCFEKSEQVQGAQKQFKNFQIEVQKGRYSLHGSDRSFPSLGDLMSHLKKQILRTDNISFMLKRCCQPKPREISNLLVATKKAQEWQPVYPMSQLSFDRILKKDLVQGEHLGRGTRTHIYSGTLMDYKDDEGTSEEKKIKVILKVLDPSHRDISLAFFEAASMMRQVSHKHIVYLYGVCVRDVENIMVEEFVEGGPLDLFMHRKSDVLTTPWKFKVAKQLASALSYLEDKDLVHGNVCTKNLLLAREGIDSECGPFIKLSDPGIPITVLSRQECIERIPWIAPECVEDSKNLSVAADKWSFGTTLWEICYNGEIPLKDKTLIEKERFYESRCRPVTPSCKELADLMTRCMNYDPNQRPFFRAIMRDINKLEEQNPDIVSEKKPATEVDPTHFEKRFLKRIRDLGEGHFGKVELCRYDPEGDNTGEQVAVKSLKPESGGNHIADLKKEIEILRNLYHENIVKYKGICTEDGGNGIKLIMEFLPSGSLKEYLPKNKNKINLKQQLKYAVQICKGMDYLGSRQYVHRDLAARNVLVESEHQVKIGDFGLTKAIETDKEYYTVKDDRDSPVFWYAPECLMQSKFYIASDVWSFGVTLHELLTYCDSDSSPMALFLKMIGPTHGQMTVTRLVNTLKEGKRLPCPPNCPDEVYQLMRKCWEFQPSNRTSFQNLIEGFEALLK

As for `COC(=O)c1cc(-n2nc(-c3ccccc3C)c3c(Br)c[nH]c(=O)c32)cs1` [Example 78, methyl 4-(4-bromo-3-(2-methylphenyl)-7-oxo-6,7-dihydro-1H-pyrazolo[3,4-c]pyridin-1-yl)thiophene-2-carboxylate], the inhibition at 1 µM stood at 75% in assay [1] and 23% in assay [2].

`Cc1ccccc1-c1nn(-c2csc(C(=O)O)c2)c2c(=O)[nH]cc(Br)c12` [Example 79, 4-(4-bromo-3-(2-methylphenyl)-7-oxo-6,7-dihydro-1H-pyrazolo[3,4-c]pyridin-1-yl)thiophene-2-carboxylic acid]: the inhibition at 1 µM in assay [1] is 93%; in assay [2] it was 44%.

Regarding `Cc1ccccc1-c1nn(-c2csc(C(N)=O)c2)c2c(=O)[nH]cc(Br)c12` [Example 80, 4-(4-bromo-3-(2-methylphenyl)-7-oxo-6,7-dihydro-1H-pyrazolo[3,4-c]pyridin-1-yl)thiophene-2-carboxamide], the inhibition at 1 µM in assay [1] came out at 97%; in assay [2] it was 82%.

`N#Cc1c[nH]c(=O)c2c(-c3ccc(C(N)=O)cc3)cn(C3CCCC3)c12` [Example 81, 4-(7-cyano-1-cyclopentyl-4-oxo-4,5-dihydro-1H-pyrrolo[3,2-c]pyridin-3-yl)benzamide]: the inhibition at 1 µM in assay [1] stood at 97%; in assay [2], 62%.

Regarding `NS(=O)(=O)c1ccc(-c2nn(C3CCOC3)c3cc[nH]c(=O)c23)cc1` (centres unmarked) [Example 82, 4-(4-oxo-1-(tetrahydrofuran-3-yl)-4,5-dihydro-1H-pyrazolo[4,3-c]pyridin-3-yl)benzenesulfonamide], in assay [1], the “Inhibitory rate (%) Tyk2 1 μM” value stood at 78%. Also, the inhibition at 1 µM in assay [2] amounted to 95%.

In the case of `NS(=O)(=O)c1ccc(-c2nn(C3CCOC3)c3cc[nH]c(=O)c23)cc1` (centres unmarked) [Example 83, 4-(4-oxo-1-(tetrahydrofuran-3-yl)-4,5-dihydro-1H-pyrazolo[4,3-c]pyridin-3-yl)benzenesulfonamide], in assay [1], the “Inhibitory rate (%) Tyk2 1 μM” value amounted to 89%. In addition, the “Inhibitory rate (%) JAK1 1 μM” value in assay [2] stood at 97%.

Consider `NS(=O)(=O)c1ccc(-c2nn(C3CCOC3)c3cc[nH]c(=O)c23)cc1` (centres unmarked) [Example 84, 4-(4-oxo-1-(tetrahydrofuran-3-yl)-4,5-dihydro-1H-pyrazolo[4,3-c]pyridin-3-yl)benzenesulfonamide], for which, in assay [1], the “Inhibitory rate (%) Tyk2 1 μM” value worked out at 58%. In assay [2], the “Inhibitory rate (%) JAK1 1 μM” value came out at 84%.

Consider `CC(C)(C)n1nc(-c2ccc(S(N)(=O)=O)cc2)c2c(=O)[nH]ccc21` [Example 86, 4-(1-tert-butyl-4-oxo-4,5-dihydro-1H-pyrazolo[4,3-c]pyridin-3-yl)benzenesulfonamide], for which the inhibition at 1 µM in assay [1] was 85%; in assay [2], 94%.

As for `NS(=O)(=O)c1ccc(-c2nn(C3CCCOC3)c3cc[nH]c(=O)c23)cc1` (centres unmarked) [Example 87, 4-(4-oxo-1-(tetrahydro-2H-pyran-3-yl)-4,5-dihydro-1H-pyrazolo[4,3-c]pyridin-3-yl)benzenesulfonamide], the figures for the inhibition at 1 µM in assay [1] and in assay [2] were 96% and 99%, respectively.

With `NS(=O)(=O)c1ccc(-c2nn(C3CCCOC3)c3cc[nH]c(=O)c23)cc1` (centres unmarked) [Example 88, 4-(4-oxo-1-(tetrahydro-2H-pyran-3-yl)-4,5-dihydro-1H-pyrazolo[4,3-c]pyridin-3-yl)benzenesulfonamide], the “Inhibitory rate (%) Tyk2 1 μM” value in assay [1] was found to be 91%. Further, the “Inhibitory rate (%) JAK1 1 μM” value in assay [2] is 96%.

With `N#Cc1c[nH]c(=O)c2c(-c3cccc(C(N)=O)c3)cn(C3CCCC3)c12` [Example 89, 3-(7-cyano-1-cyclopentyl-4-oxo-4,5-dihydro-1H-pyrrolo[3,2-c]pyridin-3-yl)benzamide], the inhibition at 1 µM turned out to be 94% in assay [1] and 64% in assay [2].

On to `CC1(C)OCC(Cn2cc(-c3ccc(S(N)(=O)=O)cc3)c3c(=O)[nH]ccc32)O1` (centres unmarked) [Example 90, 4-(1-((2,2-dimethyl-1,3-dioxolan-4-yl)methyl)-4-oxo-4,5-dihydro-1H-pyrrolo[3,2-c]pyridin-3-yl)benzenesulfonamide], for which the inhibition at 10 µM was found to be 22% in assay [1] (test compound 10 μM, read-out: Inhibitory rate (%) Tyk2 10 μM) and 38% in assay [2] (test compound 10 μM, read-out: Inhibitory rate (%) JAK1 10 μM).

In the case of `NS(=O)(=O)c1ccc(-c2cn(CC(O)CO)c3cc[nH]c(=O)c23)cc1` (centres unmarked) [Example 91, 4-(1-(2,3-dihydroxypropyl)-4-oxo-4,5-dihydro-1H-pyrrolo[3,2-c]pyridin-3-yl)benzenesulfonamide], the values for the inhibition at 1 µM in assay [1] and in assay [2] were 92% and 19%, respectively.

For the molecule `NS(=O)(=O)c1ccc(-c2nn(C3CCCC3)c3cc[nH]c(=O)c23)cc1` [Example 92, 4-(1-cyclopentyl-4-oxo-4,5-dihydro-1H-pyrazolo[4,3-c]pyridin-3-yl)benzenesulfonamide], the results for the inhibition at 1 µM in assay [1] and in assay [2] were 99% and 100%, respectively.

As for `N#CCc1cc(-c2cn(C3CCCC3)c3c(C#N)c[nH]c(=O)c23)cs1` [Example 93, 3-(5-(cyanomethyl)-3-thienyl)-1-cyclopentyl-4-oxo-4,5-dihydro-1H-pyrrolo[3,2-c]pyridine-7-carbonitrile], the inhibition at 1 µM was 99% in assay [1] and 98% in assay [2].

For `COc1ccc(Cn2nc(-c3ccc(S(N)(=O)=O)cc3)c3c(=O)[nH]ccc32)cc1` [Example 94, 4-(1-(4-methoxybenzyl)-4-oxo-4,5-dihydro-1H-pyrazolo[4,3-c]pyridin-3-yl)benzenesulfonamide], the inhibition at 1 µM is 78% in assay [1] and 80% in assay [2].

Consider `N#Cc1c[nH]c(=O)c2c(-c3ccc(CC(N)=O)cc3)cn(C3CCCC3)c12` [Example 95, 2-(4-(7-cyano-1-cyclopentyl-4-oxo-4,5-dihydro-1H-pyrrolo[3,2-c]pyridin-3-yl)phenyl)acetamide], for which the inhibition at 1 µM in assay [1] stood at 98%; in assay [2], 86%.

With `N#CCc1ccc(-c2cn(C3CCCC3)c3c(C#N)c[nH]c(=O)c23)cc1` [Example 96, 3-(4-(cyanomethyl)phenyl)-1-cyclopentyl-4-oxo-4,5-dihydro-1H-pyrrolo[3,2-c]pyridine-7-carbonitrile], the inhibition at 1 µM in assay [1] stood at 99%; in assay [2], 94%.

With `N#Cc1c[nH]c(=O)c2c(-c3csc(CC(N)=O)c3)cn(C3CCCC3)c12` [Example 97, 2-(4-(7-cyano-1-cyclopentyl-4-oxo-4,5-dihydro-1H-pyrrolo[3,2-c]pyridin-3-yl)-2-thienyl)acetamide], the inhibition at 1 µM in assay [1] is 99%; in assay [2] it was 97%.

On to `N#Cc1c[nH]c(=O)c2c(-c3cnn(CC(N)=O)c3)cn(C3CCCC3)c12` [Example 98, 2-(4-(7-cyano-1-cyclopentyl-4-oxo-4,5-dihydro-1H-pyrrolo[3,2-c]pyridin-3-yl)-1H-pyrazol-1-yl)acetamide], for which the inhibition at 1 µM in assay [1] came out at 97%; in assay [2] it was 78%.

For `N#CCn1cc(-c2cn(C3CCCC3)c3c(C#N)c[nH]c(=O)c23)cn1` [Example 99, 3-(1-(cyanomethyl)-1H-pyrazol-4-yl)-1-cyclopentyl-4-oxo-4,5-dihydro-1H-pyrrolo[3,2-c]pyridine-7-carbonitrile], the inhibition at 1 µM in assay [1] amounted to 99%; in assay [2] it was 97%.

With `CC1(Cn2nc(-c3ccc(S(N)(=O)=O)cc3)c3c(=O)[nH]ccc32)COC1` [Example 100, 4-(1-((3-methyloxetan-3-yl)methyl)-4-oxo-4,5-dihydro-1H-pyrazolo[4,3-c]pyridin-3-yl)benzenesulfonamide], the inhibition at 1 µM in assay [1] stood at 77%; in assay [2] it was 96%.

`NS(=O)(=O)c1ccc(-c2nn(C3CCCC3)c3c(Br)c[nH]c(=O)c23)cc1` [Example 101, 4-(7-bromo-1-cyclopentyl-4-oxo-4,5-dihydro-1H-pyrazolo[4,3-c]pyridin-3-yl)benzenesulfonamide]: the inhibition at 1 µM was determined as 91% in assay [1] and 80% in assay [2].

For `Cc1ccccc1-c1cn(-c2csc(C(N)=O)c2)c2c(=O)[nH]cc(C#N)c12` [Example 102, 4-(4-cyano-3-(2-methylphenyl)-7-oxo-6,7-dihydro-1H-pyrrolo[2,3-c]pyridin-1-yl)thiophene-2-carboxamide], the inhibition at 1 µM in assay [1] came to 94%; in assay [2], 67%.

On to `N#Cc1c[nH]c(=O)c2c(-c3ccccc3)cn(C3CCCC3)c12` [Example 103, 1-cyclopentyl-4-oxo-3-phenyl-4,5-dihydro-1H-pyrrolo[3,2-c]pyridine-7-carbonitrile], for which the figures for the inhibition at 1 µM in assay [1] and in assay [2] were 91% and 48%, respectively.

`N#CCc1ccc(-c2nn(-c3c(F)cccc3F)c3c(Br)c[nH]c(=O)c23)cc1` [Example 104, (4-(7-bromo-1-(2,6-difluorophenyl)-4-oxo-4,5-dihydro-1H-pyrazolo[4,3-c]pyridin-3-yl)phenyl)acetonitrile]: the inhibition at 1 µM in assay [1] worked out at 99%; in assay [2], 94%.

On to `NS(=O)(=O)c1ccc(-c2nn(CC3COC3)c3cc[nH]c(=O)c23)cc1` [Example 105, 4-(1-(oxetan-3-ylmethyl)-4-oxo-4,5-dihydro-1H-pyrazolo[4,3-c]pyridin-3-yl)benzenesulfonamide], for which the inhibition at 1 µM in assay [1] stood at 66%; in assay [2] it was 88%.

With `N#Cc1c[nH]c(=O)c2c(-c3ccsc3)cn(C3CCCC3)c12` [Example 106, 1-cyclopentyl-4-oxo-3-(3-thienyl)-4,5-dihydro-1H-pyrrolo[3,2-c]pyridine-7-carbonitrile], the figures for the inhibition at 1 µM in assay [1] and in assay [2] were 98% and 91%, respectively.
